Results taken from patent US20160280731A1, “CRYSTALLINE FORMS B, C, and D OF CANAGLIFLOZIN” (CRYSTAL PHARMATECH CO., LTD, priority 2013, published 2016).
≈ marks a conversion by molar mass, not a printed value.

Columns and labels:
[1] = Stability assessment of Form B under stress conditions (XRPD after storage); assay type: physicochemical; conditions: 30 days; for Final form: dish open, XRPD
Method: Two samples of canagliflozin Form B were stored under 25° C./60% RH and 40° C./75% RH, respectively, with dish open for 30 days. The solid samples were analyzed by XRPD.

[2] = Kinetic solubility in FeSSIF and FaSSIF; assay type: physicochemical; conditions: for Solubility in comparison to the hemihydrate form (WO2008069327A1): FeSSIF and FaSSIF, 1 h, 4 h, 24 h; for Solubility in comparison to the hemihydrate form (WO2008069327A1) / solubility at 1 h / solubility at 4 h / solubility at 24 h: RT; for solubility at 1 h / solubility at 4 h / solubility at 24 h: thermodynamic from solid
Method: Kinetic solubility of canagliflozin in crystalline Form B and its hemihydrate form in fed state simulated intestinal fluid (FeSSIF) and fasted state simulated intestinal fluid (FaSSIF) were measured using the following procedures:
1. Weighed approximately 30 mg of compound into a tared 4 mL plastic vial and recorded the actual weight of the compound.
2. Added 3 mL of water or bio-relevant medium into each vial.
3. Covered the vials with caps and kept all the suspension samples stirring at RT using a rolling incubator with a speed of 25 r/min.
4. Sampled at 1 h, 4 h and 24 h respectively.
5. Centrifuged the filtration tubes in a speed of 8500 rpm for 3 minutes at RT, collected 0.2 mL supernatant for HPLC quantification determination and the rest of solution for pH measurement, and separated the solid for XRPD characterization.
Kinetic solubility of canagliflozin Form C and hemihydrate in fed state simulated intestinal fluid (FeSSIF) and fasted state simulated intestinal fluid (FaSSIF) were measured using the following procedures:
5. Centrifuged filtration tubes in a speed of 8500 rpm for 3 minutes at RT, collected 0.2 mL supernatant for HPLC quantification determination and the rest of solution for pH measurement, and separated the solid for XRPD characterization.

Row | Structure (SMILES) | Stability under the stress conditions ([1]; 25° C./60% RH and 40° C./75% RH) | Final form ([1]; stored under 25° C./60% RH) | Final form ([1]; stored under 40° C./75% RH) | Solubility in comparison to the hemihydrate form (WO2008069327A1) [2] | solubility at 1 h ([2]; fasted state simulated intestinal fluid (FaSSIF), fassif, time point 1 h) [µg/mL] | solubility at 4 h ([2]; fasted state simulated intestinal fluid (FaSSIF), fassif, time point 4 h) [µg/mL] | solubility at 24 h ([2]; fasted state simulated intestinal fluid (FaSSIF), fassif, time point 24 h) [µg/mL] | solubility at 1 h ([2]; fed state simulated intestinal fluid (FeSSIF), fessif, time point 1 h) [µg/mL] | solubility at 4 h ([2]; fed state simulated intestinal fluid (FeSSIF), fessif, time point 4 h) [µg/mL] | solubility at 24 h ([2]; fed state simulated intestinal fluid (FeSSIF), fessif, time point 24 h) [µg/mL] | Solubility at RT ([2]; FaSSIF, time point 1 h) [µg/mL] | Solubility at RT ([2]; FaSSIF, time point 4 h) [µg/mL] | Solubility at RT ([2]; FaSSIF, time point 24 h) [µg/mL] | Solubility at RT ([2]; FeSSIF, time point 1 h) [µg/mL] | Solubility at RT ([2]; FeSSIF, time point 4 h) [µg/mL] | Solubility at RT ([2]; FeSSIF, time point 24 h) [µg/mL]
1 | Cc1ccc([C@@H]2O[C@H](CO)[C@@H](O)[C@H](O)[C@H]2O)cc1Cc1ccc(-c2ccc(F)cc2)s1 [Form B, (2S,3R,4R,5S,6R)-2-{3-[5-[4-fluoro-phenyl)-thiophen-2-ylmethyl]-4-methyl-phenyl -}-6-hydroxymethyl-tetrahydro-pyran-3,4,5-triol] | stable | Form B | Form B | higher solubility | 500 (≈ 1.12 mM) | 510 (≈ 1.15 mM) | 480 (≈ 1.08 mM) | 4720 (≈ 10.6 mM) | 4760 (≈ 10.7 mM) | 4350 (≈ 9.79 mM) |  |  |  |  |  | 
2 | Cc1ccc([C@@H]2O[C@H](CO)[C@@H](O)[C@H](O)[C@H]2O)cc1Cc1ccc(-c2ccc(F)cc2)s1 [Form C, (2S,3R,4R,5S,6R)-2-{3-[5-[4-fluoro-phenyl)-thiophen-2-ylmethyl]-4-methyl-phenyl -}-6-hydroxymethyl-tetrahydro-pyran-3,4,5-triol] |  |  |  | higher solubility |  |  |  |  |  |  | 410 (≈ 0.922 mM) | 440 (≈ 0.99 mM) | 420 (≈ 0.945 mM) | 4600 (≈ 10.3 mM) | 4700 (≈ 10.6 mM) | 4500 (≈ 10.1 mM)
3 | Cc1ccc([C@@H]2O[C@H](CO)[C@@H](O)[C@H](O)[C@H]2O)cc1Cc1ccc(-c2ccc(F)cc2)s1 [WO2008069327A1 hemihydrate, (2S,3R,4R,5S,6R)-2-{3-[5-[4-fluoro-phenyl)-thiophen-2-ylmethyl]-4-methyl-phenyl -}-6-hydroxymethyl-tetrahydro-pyran-3,4,5-triol, reference compound] |  |  |  |  |  |  |  |  |  |  | 360 | 370 | 370 | 3340 | 3500 | 3700
